Where a name gives a salt, the structure may show the parent alone.
Assays:
[1] = system: Lewis lung carcinoma (LLC) tumors; assay: LLC tumor-bearing mice treated with CPT-11 six times over 2 weeks; assay type: in vivo, mouse
Description: For tumor experiments, 4 million LLC cells [American Type Culture Collection (ATCC)] were injected into the flanks of WT and Puma KO mice and allowed to grow for 11 days. Mice were then treated with CPT-11 (200 mg/kg) three times per week for 2 weeks. PUMAi (10 mg/kg) or vehicle control was administered by intraperitoneal injection 2 hours before and 20 hours after each dose of CPT-11. Mice were sacrificed 4 hours after the final CPT-11 treatment.
For tumor experiments, mice were treated with CPT-11 three times per week for two weeks. Mice receiving PUMAi were treated 2 hours before each dose of CPT-11 and 20 hours after. Mice were sacrificed four hours after the final CPT-11 treatment (FIG. 13A). Tumor volumes were measured with calipers and calculated as volume=(length x width2)/2. Mice were 7-9 weeks old, and roughly equal numbers of male and female animals were used. To account for variations in starting body weights, the values in FIGS. 3 and 4 are expressed as a percentage of the respective mouse weights at the time of the first CPT-11 treatment.
Immediately after sacrifice, about 10-cm portion of the jejunum was removed and carefully rinsed with ice-cold saline. The tissue was opened longitudinally and tacked to a foam board for fixation overnight in 10% formalin. Tissues were then rolled up into “swiss rolls” and embedded in paraffin. For tumor analysis, flank tumors were removed, measured, and cut into pieces for either formalin fixation or flash freezing in a dry ice/ethanol bath. Tissue sections (5 um) were deparaffinized and rehydrated through graded ethanols. Histological analysis was performed by hematoxylin and eosin (H&E) staining.
Average villus height was determined by measuring 40 to 50 villi from different locations of the small intestine, from at least three different animals per group, and reported as means A} SEM. Measurements were made from the top of the crypt to the tip of the villus using 100 Å˜H&E images and SPOT 5.1 Advanced software (Diagnostic Instruments Inc.).
Neutrophil IF. Sections were prepared as described above. […] Sections were then incubated with AlexaFluor-594 goat antirat secondary antibodies (1:200; A11007; Invitrogen) for 1 hour at room temperature and counterstained with VectaShield plus DAPI.

[2] = system: primary human colonic organoids; assay: Human colonic organoids treated with CPT; assay type: cell-based; conditions: PUMAi 50 uM
Description: Fresh mucosal scrapings from 10 cm of jejunum were washed in cold PBS, resuspended in 700 ul of RNA lysis buffer, and homogenized in a Dounce homogenizer. RNA was isolated using the Quick-RNA MiniPrep kit (Zymo Research) according to the manufacturer's instructions. Organoids were freed from Matrigel using Cell Recovery Solution (Corning), as described in, before RNA isolation. Complementary DNA was generated from 2 ug of total RNA from mice or ˜100 ng of total RNA from colonic organoids and was pooled from three mice or three wells of organoid culture per treatment group using SuperScript III reverse transcriptase (Invitrogen) and random primers. Gene expression was normalized to Gapdh. Representative results are shown, and similar results were obtained in at least three independent experiments. Details on mouse and human primers are found in Tables 1 and 2.
Surgically resected intestinal tissues were obtained from Health Science Tissue Bank (HSTB) of UPMC Shadyside Hospital and UPMC Presbyterian Hospital. All samples were obtained with informed consent and approval by the University of Pittsburgh Ethics Committee. Human normal colon crypt isolation and organoid development were performed as previously described with modifications. The complete culture medium for normal human colon organoids contains advanced DMEM/F12 (12634-010, Invitrogen) supplemented with 1× penicillin/streptomycin (15140-122, Invitrogen), 10 mM HEPES (15630-106, Invitrogen), 2 mM GlutaMAX (Invitrogen), 1× B27 (17504-044, Invitrogen), 1XN2 (17502-048, Invitrogen), 1 mM N-Acetylcysteine (A0737, Sigma), 10 nM [leu-15]-Gastrin (G9145, Sigma), 10 mM nicotinamide (N0636, Sigma), 10 μM SB202190 (S7067, Sigma), 50 ng/ml recombinant murine EGF (315-09, Peprotech), 0.5 μM A83-01 (2939, Tocris Bioscience), 10 nM PGE2 (22-961-0, Tocris Bioscience), and 50% WRN-conditioned medium (vol/vol). Freshly isolated crypts were cultured with the same medium plus 10 μM Y-27632 and 100 μg/ml Primocin. Organoids 100 p.m or greater in diameter were enumerated on day 6 after CPT treatment. […]

OCCN1CCN(CC(O)COc2ccc3ccccc3c2)CC1 (stereo not shown) [PUMAi, 1-[4-(2-hydroxyethyl)-1-piperazinyl]-3-(2-naphthyloxy)-2-propanol dihydrochloride] was tested, and the “CPT-11-induced weight loss, intestinal damage and lethality” value ([1]; PUMAi 10 mg/kg 2 h before and 20 h after each CPT-11 dose) was “highly resistant”, the “tumor response to CPT-11” value ([1]; PUMAi 10 mg/kg 2 h before and 20 h after each CPT-11 dose, vs vehicle group) was “comparable tumor response” and the “% mice compieting treatment” value ([1]; WT mice, LLC tumor experiments) was 100% (5/5). The “grooming and physical activity” value ([1]; daily inspections throughout the study) was “improved grooming and physical activity”, the “CPT-induced caspase-3 activation” value ([2]; 24 h after CPT) was “inhibited CPT-induced caspase-3 activation” and the “CPT-induced expression of WNT and NOTCH targets” value ([2]; 24 h after CPT) was “suppressed CPT-induced expression of WNT and NOTCH targets”. For the same molecule, the “organoid growth after CPT” value ([2]; CPT 500 nM 24 h, day 6) was “enhanced organoid growth”.
